Measured values taken from US20220401385A1, “Combination Therapy Based on PD-1 Signaling Inhibitors” (Kyoto University, priority 2019, published 2022).

Tested on: MC38 cells
Test: MC38 mouse therapy model, tumor growth and survival
Format: in vivo, C57BL/6 mice
Experimental: FIG. 1-1 a) CD8^+ T cells or CD3^+ T cells were isolated from mice, and 2×10^5 cells were stimulated with CD3/CD28 beads in 96-well U plates. After 24 hours and 48 hours, cells and culture supernatant were collected, followed by measurement of spermidine (SPD) concentration by mass spectrometry. […] Ten days after inoculation, PD-L1 antibody (2 mg/kg), PD-L1 antibody+SPD (2 mg/kg), or SPD alone was administered. Subsequently, PD-L1 antibody was administered 4 times at a regular interval of 5 days, and SPD was administered 8 times at a regular interval of 3 days. Tumor growth curve and survival curve are shown. c) Draining lymph nodes (DLNs) of mice were isolated 13 days after tumor inoculation, and stained with antibodies to CD8, CD44 and CD62L. The number of cells in draining lymph node (cells/DLN) in each treatment group is shown at the left side. After being gated, CD8^+ T cells were fractionated with CD44 and CD62L into P1 to P4 cell populations. Percentages and cell numbers of P1 to P4 in each treatment group are shown. d) Tumor was isolated 13 days after tumor inoculation and treated with collagenase. Percentages and numbers per mg tumor of tumor-infiltrating CD8^+ CD45.2^+ cells are shown. For statistical analysis, ANOVA was used. * p<0.05, ** p<0.01, *** p<0.001, **** p<0.0001.
FIG. 8 MC38 cells (5×10^5) were intradermally inoculated into C57BL/6 mice. Ten days after inoculation, PD-L1 antibody (2 mg/kg), PD-L1 antibody+SPD (2 mg/kg) or PD-L1 antibody+SPM (6 mg/kg) was administered. Subsequently, […] was administered 4 times at a regular interval of 5 days, whereas SPD and SPM were administered 8 times at a regular interval of 3 days. Tumor growth curve is shown.
MC38 cells (5×10^5) were intradermally injected on the right flank. Ten days after inoculation, PD-L1 antibody (1-111A; prepared by and stored at the Department of Immunology and Genomic Medicine, Graduate School of Medicine, Kyoto University) (Immunology Letters 84 (2002) 57-62) (2 mg/kg), PD-L1 antibody+SPD (2 mg/kg) or SPD alone was administered to mice. Subsequently, PD-L1 antibody was administered 4 times at a regular interval of 5 days, and SPD was administered 8 times at a regular interval of 3 days. Tumors were measured on every alternate day, and tumor volumes were calculated using the formula for typical ellipsoid, π×(length×breadth×height/6).

NCCCNCCCCNCCCN [SPM, spermine]
effectiveness compared with SPD in enhancing the antitumor effect of PD-1 inhibitory antibody (SPM 6 mg/kg versus SPD 2 mg/kg, each + PD-L1 antibody, MC38): slightly less effective than SPD | enhancement of the antitumor effect of PD-1 inhibitory antibody (SPM (6 mg/kg) + PD-L1 antibody (2 mg/kg), MC38 in C57BL/6 mice): induced to some extent an enhancement
